This passage reports IC50 results from US20250295609A1, “COMPOUND HAVING ANTI-ANDROGEN RECEPTOR ACTIVITY, AND USE THEREOF” (NANJING MINOVA PHARMACEUTICAL CO., LTD., priority 2022, published 2025).

Structures are written as SMILES.

The subject of the assay is human prostate cancer cells 22Rvl. The assay can be described thus: Cell viability inhibition assay (CTG) on 22Rvl cells. The format is cell-based. The conditions noted are these: 120 h, no DHT, 5 days, read-out: Inhibitory activity against human prostate cancer cells 22Rvl IC50. The source says: Human prostate cancer cells LNCaP and human prostate cancer cells 22Rvl are present in patients with prostate cancer. An androgen, DHT, is able to promote the growth of human prostate cancer cells LNCaP. Using the cell model described above was intended to study the inhibitory effects of the compounds of the present disclosure on the growth of human prostate cancer cells (human prostate cancer cells LNCaP and human prostate cancer cells 22Rvl) in the presence or absence of DHT. […]
The medium in the culture dish was discarded, and 5 mL of trypsin was added for digestion for about 3 mins. […] 1 mL of the cells was taken and counted, and the cell viability was detected. […]
After the cells were attached to the well, for the human prostate cancer cells LNCaP group, test compounds (0.1 μM, 0.3 μM, 1 μM, 3 μM, 10 μM, and 30 μM) and DHT (1 nM, inducing the expression of AR) were added to the 96-well plate, and the plate was incubated for another 5 days; for the human prostate cancer cells 22Rvl group, test compounds (0.1 μM, 0.3 μM, 1 μM, 3 μM, 10 μM, and 30 μM) were added to the 96-well plate, and the plate was incubated for another 5 days. […] The cell viability was detected by using a CTG method. […] The fluorescence value in each well was then detected. […] For data analysis, an assay background value was subtracted from all data points, which was determined in wells containing the medium but no cells. […]

On to `COc1ccc(/C=C/C(=O)C2(C(=O)/C=C/c3ccc(OC)c(OC)c3)CCC(F)(F)CC2)cc1OC` [Compound 8], for which the IC50 is 350 nM.

Broadly, the IC50 is the concentration that inhibits the measured activity by half.
